How the values were obtained:
Dipeptidyl peptidase 9 = Dipeptidyl peptidase 9 (Homo sapiens, UniProt Q86TI2); test: Inhibition of DPP9
Dipeptidyl peptidase 8 = Dipeptidyl peptidase 8 (Homo sapiens, UniProt Q6V1X1); test: Inhibition of DPP8
Dipeptidyl peptidase 2 = Dipeptidyl peptidase 2 (Homo sapiens, UniProt Q9UHL4); test: Inhibition of QPP
Dipeptidyl peptidase 4 = Dipeptidyl peptidase 4 (Homo sapiens, UniProt P27487); test: Inhibition of DPP4
[1] = target: Voltage-gated inwardly rectifying potassium channel KCNH2 (Homo sapiens, UniProt Q12809); test: Inhibition of hERG potassium channel; assay type: toxicity
[2] = Plasma clearance in rat at 1 mg/kg, iv and 2 mg/kg, po; assay type: ADME, organism-based
[3] = Half life in rat at 1 mg/kg, iv and 2 mg/kg, po; assay type: ADME, organism-based; details: in vivo
[4] = Oral bioavailability in rat at 1 mg/kg, iv and 2 mg/kg, po; assay type: ADME, organism-based; details: in vivo
[5] = Oral bioavailability in dog; assay type: ADME, organism-based, Canis lupus familiaris; details: in vivo
[6] = Half life in dog; assay type: ADME, organism-based, Canis lupus familiaris; details: in vivo
Homo sapiens = organism: Homo sapiens; test: Selectivity for DPP4 over QPP

Chain of Dipeptidyl peptidase 4 (P27487 whole entry): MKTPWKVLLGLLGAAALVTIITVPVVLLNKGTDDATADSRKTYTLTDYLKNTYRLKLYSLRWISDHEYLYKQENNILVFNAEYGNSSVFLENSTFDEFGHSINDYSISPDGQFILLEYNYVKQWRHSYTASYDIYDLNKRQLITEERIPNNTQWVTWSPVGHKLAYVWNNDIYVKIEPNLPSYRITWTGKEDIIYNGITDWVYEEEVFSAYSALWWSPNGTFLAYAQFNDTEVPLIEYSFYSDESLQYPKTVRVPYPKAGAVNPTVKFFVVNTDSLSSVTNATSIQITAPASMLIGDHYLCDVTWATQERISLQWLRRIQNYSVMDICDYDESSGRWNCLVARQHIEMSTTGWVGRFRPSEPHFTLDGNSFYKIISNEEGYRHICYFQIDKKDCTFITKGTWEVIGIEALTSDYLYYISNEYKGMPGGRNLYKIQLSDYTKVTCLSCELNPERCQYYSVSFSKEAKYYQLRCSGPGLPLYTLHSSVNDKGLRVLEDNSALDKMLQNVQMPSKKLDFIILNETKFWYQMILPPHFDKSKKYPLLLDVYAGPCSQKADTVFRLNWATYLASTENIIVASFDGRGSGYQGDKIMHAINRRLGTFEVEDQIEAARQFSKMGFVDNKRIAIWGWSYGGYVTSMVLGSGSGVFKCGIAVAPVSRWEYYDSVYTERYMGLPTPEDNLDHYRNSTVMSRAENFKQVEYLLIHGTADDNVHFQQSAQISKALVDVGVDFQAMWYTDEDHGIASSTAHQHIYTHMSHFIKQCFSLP
Chain of Dipeptidyl peptidase 9 (Q86TI2 whole entry): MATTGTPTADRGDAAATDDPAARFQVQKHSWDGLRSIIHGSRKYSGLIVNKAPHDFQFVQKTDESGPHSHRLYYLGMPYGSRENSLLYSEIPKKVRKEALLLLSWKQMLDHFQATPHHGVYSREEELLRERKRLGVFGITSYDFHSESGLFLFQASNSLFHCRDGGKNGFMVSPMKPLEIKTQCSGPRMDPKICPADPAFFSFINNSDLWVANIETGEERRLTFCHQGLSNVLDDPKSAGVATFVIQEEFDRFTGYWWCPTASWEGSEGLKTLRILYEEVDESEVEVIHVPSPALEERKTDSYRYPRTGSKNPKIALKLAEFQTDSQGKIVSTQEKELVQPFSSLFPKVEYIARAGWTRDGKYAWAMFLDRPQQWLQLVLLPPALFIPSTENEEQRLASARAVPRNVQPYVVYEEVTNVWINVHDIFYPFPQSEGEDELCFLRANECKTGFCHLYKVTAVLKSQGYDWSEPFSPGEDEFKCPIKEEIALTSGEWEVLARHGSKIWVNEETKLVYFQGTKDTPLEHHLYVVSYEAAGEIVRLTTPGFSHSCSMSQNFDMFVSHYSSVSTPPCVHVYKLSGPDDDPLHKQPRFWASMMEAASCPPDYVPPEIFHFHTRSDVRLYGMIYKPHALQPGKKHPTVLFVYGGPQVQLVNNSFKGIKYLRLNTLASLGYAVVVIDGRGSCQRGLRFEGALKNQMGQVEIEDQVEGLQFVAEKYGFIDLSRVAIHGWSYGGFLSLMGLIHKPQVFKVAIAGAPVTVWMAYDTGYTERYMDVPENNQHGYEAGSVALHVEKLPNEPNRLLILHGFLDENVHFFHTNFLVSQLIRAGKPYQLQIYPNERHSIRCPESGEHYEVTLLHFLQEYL
Chain of Dipeptidyl peptidase 8 (Q6V1X1 whole entry): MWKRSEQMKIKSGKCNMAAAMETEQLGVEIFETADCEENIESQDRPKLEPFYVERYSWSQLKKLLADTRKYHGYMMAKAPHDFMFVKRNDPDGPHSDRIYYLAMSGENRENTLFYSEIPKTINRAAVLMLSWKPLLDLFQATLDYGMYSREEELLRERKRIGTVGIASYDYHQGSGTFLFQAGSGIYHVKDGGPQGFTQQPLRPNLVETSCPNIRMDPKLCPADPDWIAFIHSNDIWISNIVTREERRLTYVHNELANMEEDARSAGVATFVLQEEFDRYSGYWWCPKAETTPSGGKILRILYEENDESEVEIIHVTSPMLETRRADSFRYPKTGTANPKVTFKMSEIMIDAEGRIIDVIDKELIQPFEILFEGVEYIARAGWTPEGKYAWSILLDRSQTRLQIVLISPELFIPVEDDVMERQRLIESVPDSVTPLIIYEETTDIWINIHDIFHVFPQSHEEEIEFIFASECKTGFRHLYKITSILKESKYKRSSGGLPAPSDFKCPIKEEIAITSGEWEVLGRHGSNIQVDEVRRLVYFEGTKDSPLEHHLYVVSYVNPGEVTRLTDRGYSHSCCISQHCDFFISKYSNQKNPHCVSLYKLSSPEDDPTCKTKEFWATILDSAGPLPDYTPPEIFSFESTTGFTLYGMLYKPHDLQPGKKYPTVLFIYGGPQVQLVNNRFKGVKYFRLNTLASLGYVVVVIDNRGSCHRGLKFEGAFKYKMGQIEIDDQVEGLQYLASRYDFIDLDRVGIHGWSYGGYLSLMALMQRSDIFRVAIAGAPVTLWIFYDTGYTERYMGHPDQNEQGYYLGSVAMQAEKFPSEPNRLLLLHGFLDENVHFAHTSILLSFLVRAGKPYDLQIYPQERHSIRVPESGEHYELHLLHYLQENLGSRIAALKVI
Chain of Voltage-gated inwardly rectifying potassium channel KCNH2 (Q12809 whole entry): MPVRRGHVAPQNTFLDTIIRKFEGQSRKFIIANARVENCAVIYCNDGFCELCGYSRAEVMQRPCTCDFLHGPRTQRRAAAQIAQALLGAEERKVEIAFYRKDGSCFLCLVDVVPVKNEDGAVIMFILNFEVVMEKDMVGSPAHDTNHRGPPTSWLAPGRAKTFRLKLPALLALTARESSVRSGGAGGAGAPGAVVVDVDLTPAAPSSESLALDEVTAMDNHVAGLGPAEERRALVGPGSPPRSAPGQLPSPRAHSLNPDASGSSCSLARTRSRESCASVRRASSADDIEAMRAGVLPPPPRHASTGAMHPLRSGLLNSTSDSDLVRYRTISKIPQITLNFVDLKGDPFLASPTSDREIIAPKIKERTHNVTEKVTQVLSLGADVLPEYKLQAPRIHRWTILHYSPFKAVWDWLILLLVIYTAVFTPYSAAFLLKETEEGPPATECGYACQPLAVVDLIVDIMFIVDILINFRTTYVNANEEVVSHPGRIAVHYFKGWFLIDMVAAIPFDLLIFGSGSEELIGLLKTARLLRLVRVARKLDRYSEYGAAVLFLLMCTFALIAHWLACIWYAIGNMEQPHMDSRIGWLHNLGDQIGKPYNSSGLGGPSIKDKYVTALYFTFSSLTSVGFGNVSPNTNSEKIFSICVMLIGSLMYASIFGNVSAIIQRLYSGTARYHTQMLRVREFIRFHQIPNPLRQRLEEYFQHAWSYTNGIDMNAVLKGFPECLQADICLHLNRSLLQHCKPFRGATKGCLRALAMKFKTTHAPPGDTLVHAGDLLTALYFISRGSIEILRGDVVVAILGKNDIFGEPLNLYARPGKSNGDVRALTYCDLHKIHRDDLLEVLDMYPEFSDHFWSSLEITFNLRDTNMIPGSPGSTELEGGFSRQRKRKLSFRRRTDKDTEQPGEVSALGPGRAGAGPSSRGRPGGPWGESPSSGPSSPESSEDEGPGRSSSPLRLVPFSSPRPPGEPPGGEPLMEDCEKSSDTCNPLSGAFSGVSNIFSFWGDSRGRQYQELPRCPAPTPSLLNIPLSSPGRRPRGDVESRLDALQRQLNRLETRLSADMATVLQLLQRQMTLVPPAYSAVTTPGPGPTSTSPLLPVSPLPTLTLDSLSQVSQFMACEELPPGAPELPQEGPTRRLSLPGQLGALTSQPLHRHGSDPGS

## C[C@H](c1nc(-c2ccccc2Cl)no1)[C@H](N)C(=O)N1CCCC1
Dipeptidyl peptidase 9
  IC50: > 100 µM
Dipeptidyl peptidase 8
  IC50: > 100 µM
Dipeptidyl peptidase 2
  IC50: 2.2 µM
Dipeptidyl peptidase 4
  IC50: 0.99 µM

## C[C@H](c1nc(-c2ccccc2C(F)(F)F)no1)[C@H](N)C(=O)N1CCCC1
Dipeptidyl peptidase 9
  IC50: > 100 µM
Dipeptidyl peptidase 8
  IC50: > 100 µM
Dipeptidyl peptidase 2
  IC50: 1.8 µM
Dipeptidyl peptidase 4
  IC50: 4.82 µM

## C[C@H](c1nc(-c2ccc(NS(C)(=O)=O)cc2Cl)no1)[C@H](N)C(=O)N1CCC(F)(F)C1
Dipeptidyl peptidase 9
  IC50: > 100 µM
Dipeptidyl peptidase 8
  IC50: > 100 µM
Dipeptidyl peptidase 2
  IC50: 0.16 µM
Dipeptidyl peptidase 4
  IC50: 0.019 µM

## C[C@H](c1nc(-c2cccc(C(F)(F)F)c2)no1)[C@H](N)C(=O)N1CCCC1
Dipeptidyl peptidase 9
  IC50: > 100 µM
Dipeptidyl peptidase 8
  IC50: > 100 µM
Dipeptidyl peptidase 2
  IC50: 4.3 µM
Dipeptidyl peptidase 4
  IC50: 15.6 µM

## CS(=O)(=O)c1ccc(-c2noc([C@@H](CC3CC3)[C@H](N)C(=O)N3CC[C@H](F)C3)n2)c(Cl)c1
Dipeptidyl peptidase 9
  IC50: > 100 µM
Dipeptidyl peptidase 8
  IC50: > 100 µM

## CS(=O)(=O)c1ccc(-c2noc([C@@H](CC3CC3)[C@H](N)C(=O)N3CC[C@H](F)C3)n2)c(F)c1.O=C(O)C(F)(F)F
Dipeptidyl peptidase 9
  IC50: > 100 µM
Dipeptidyl peptidase 8
  IC50: > 100 µM
[1]
  IC50: 58.5 µM
[2]
  clearance: 18.7 mL/min/kg
[3]
  half-life: 1.3 h
[4]
  bioavailability: 36%
[5]
  bioavailability: 95%
[6]
  half-life: 1.75 h

## C[C@H](c1nc(-c2ccccc2)no1)[C@H](N)C(=O)N1CCCC1
Dipeptidyl peptidase 9
  IC50: > 100 µM
Dipeptidyl peptidase 8
  IC50: > 100 µM
Dipeptidyl peptidase 2
  IC50: 5.7 µM
Dipeptidyl peptidase 4
  IC50: 19.7 µM

## CS(=O)(=O)c1ccc(-c2noc([C@@H](CCO)[C@H](N)C(=O)N3CC[C@H](F)C3)n2)c(Cl)c1
Dipeptidyl peptidase 9
  IC50: > 100 µM
Dipeptidyl peptidase 8
  IC50: > 100 µM

## C[C@H](c1nc(-c2ccc(OC(F)(F)F)cc2)no1)[C@H](N)C(=O)N1CCCC1
Dipeptidyl peptidase 9
  IC50: > 100 µM
Dipeptidyl peptidase 8
  IC50: > 100 µM
Dipeptidyl peptidase 2
  IC50: 5.2 µM
Dipeptidyl peptidase 4
  IC50: 1.79 µM

## C[C@H](c1nnc(-c2ccc(Cl)cc2Cl)o1)[C@H](N)C(=O)N1CCCC1
Dipeptidyl peptidase 9
  IC50: > 100 µM
Dipeptidyl peptidase 8
  IC50: > 100 µM
Dipeptidyl peptidase 2
  IC50: 0.85 µM
Dipeptidyl peptidase 4
  IC50: 0.56 µM

## C[C@H](c1nc(-c2ccc(S(N)(=O)=O)cc2)no1)[C@H](N)C(=O)N1CCCC1
Dipeptidyl peptidase 9
  IC50: > 100 µM
Dipeptidyl peptidase 8
  IC50: > 100 µM
Dipeptidyl peptidase 2
  IC50: 26.8 µM
Dipeptidyl peptidase 4
  IC50: 0.19 µM

## C[C@H](c1nc(-c2ccc(Cl)cc2Cl)no1)[C@H](N)C(=O)N1CCCC1.O=C(O)C(F)(F)F
Dipeptidyl peptidase 9
  IC50: > 100 µM
Dipeptidyl peptidase 8
  IC50: > 100 µM
[1]
  IC50: 36.7 µM
[2]
  clearance: 13.8 mL/min/kg
[3]
  half-life: 2.71 h
[4]
  bioavailability: 35%

## C[C@H](c1nc(-c2ccc(NS(C)(=O)=O)cc2Cl)no1)[C@H](N)C(=O)N1CC[C@H](F)C1
Dipeptidyl peptidase 9
  IC50: > 100 µM
Dipeptidyl peptidase 8
  IC50: > 100 µM
Dipeptidyl peptidase 2
  IC50: 2.57 µM
Dipeptidyl peptidase 4
  IC50: 0.019 µM

## C[C@H](c1nc(-c2ccc(C(F)(F)F)cc2)no1)[C@H](N)C(=O)N1CCCC1
Dipeptidyl peptidase 9
  IC50: > 100 µM
Dipeptidyl peptidase 8
  IC50: > 100 µM
Dipeptidyl peptidase 2
  IC50: 6 µM
Dipeptidyl peptidase 4
  IC50: 1.61 µM

## C[C@H](c1nc(-c2ccc(NS(C)(=O)=O)cc2Cl)no1)[C@H](N)C(=O)N1CCCC1
Dipeptidyl peptidase 9
  IC50: > 100 µM
Dipeptidyl peptidase 8
  IC50: > 100 µM
Dipeptidyl peptidase 2
  IC50: 1.4 µM
Dipeptidyl peptidase 4
  IC50: 0.008 µM

## C[C@H](c1nc(-c2ccc(Cl)cc2)no1)[C@H](N)C(=O)N1CCCC1
Dipeptidyl peptidase 9
  IC50: > 100 µM
Dipeptidyl peptidase 8
  IC50: > 100 µM
Dipeptidyl peptidase 2
  IC50: 3.8 µM
Dipeptidyl peptidase 4
  IC50: 3.82 µM

## C[C@H](c1nc(-c2ccc(S(C)(=O)=O)cc2F)no1)[C@H](N)C(=O)N1CCCC1
Dipeptidyl peptidase 9
  IC50: > 100 µM
Dipeptidyl peptidase 8
  IC50: > 100 µM
Dipeptidyl peptidase 2
  IC50: 14.1 µM
Dipeptidyl peptidase 4
  IC50: 0.043 µM
Homo sapiens
  Ratio IC50: > 320

## C[C@H](c1noc(-c2ccc(Cl)cc2Cl)n1)[C@H](N)C(=O)N1CCCC1
Dipeptidyl peptidase 9
  IC50: > 100 µM
Dipeptidyl peptidase 8
  IC50: > 100 µM
Dipeptidyl peptidase 2
  IC50: 4.2 µM
Dipeptidyl peptidase 4
  IC50: 1.21 µM

## C[C@H](c1nc(-c2ccccc2OC(F)(F)F)no1)[C@H](N)C(=O)N1CCCC1
Dipeptidyl peptidase 9
  IC50: > 100 µM
Dipeptidyl peptidase 8
  IC50: > 100 µM
Dipeptidyl peptidase 2
  IC50: 2.5 µM
Dipeptidyl peptidase 4
  IC50: 12.4 µM

## C[C@H](c1nc(-c2ccc(S(C)(=O)=O)cc2Cl)no1)[C@H](N)C(=O)N1CCCC1
Dipeptidyl peptidase 9
  IC50: > 100 µM
Dipeptidyl peptidase 8
  IC50: > 100 µM
[2]
  clearance: 6 mL/min/kg
[3]
  half-life: 0.82 h
[4]
  bioavailability: 27%

## C[C@H](c1nc(-c2ccc(Br)cc2Cl)no1)[C@H](N)C(=O)N1CCCC1
Dipeptidyl peptidase 9
  IC50: > 100 µM
Dipeptidyl peptidase 8
  IC50: > 100 µM
Dipeptidyl peptidase 2
  IC50: 1.3 µM
Dipeptidyl peptidase 4
  IC50: 0.16 µM

## C[C@H](c1n[nH]c(-c2ccc(Cl)cc2Cl)n1)[C@H](N)C(=O)N1CCCC1
Dipeptidyl peptidase 9
  IC50: > 100 µM
Dipeptidyl peptidase 8
  IC50: > 100 µM
Dipeptidyl peptidase 2
  IC50: 5.41 µM
Dipeptidyl peptidase 4
  IC50: 3.05 µM

## C[C@H](c1nc(-c2ccc(S(C)(=O)=O)cc2)no1)[C@H](N)C(=O)N1CCCC1
Dipeptidyl peptidase 9
  IC50: > 100 µM
Dipeptidyl peptidase 8
  IC50: > 100 µM

## CS(=O)(=O)c1ccc(-c2noc([C@@H](CC3CC3)[C@H](N)C(=O)N3CC[C@H](F)C3)n2)cc1.O=C(O)C(F)(F)F
Dipeptidyl peptidase 9
  IC50: > 100 µM
Dipeptidyl peptidase 8
  IC50: > 100 µM
Dipeptidyl peptidase 2
  IC50: 20.4 µM
[2]
  clearance: 11.2 mL/min/kg
[3]
  half-life: 1.8 h
[4]
  bioavailability: 49%
Dipeptidyl peptidase 4
  IC50: 0.052 µM

## CC(C)C[C@H](c1nc(-c2ccc(S(C)(=O)=O)cc2Cl)no1)[C@H](N)C(=O)N1CC[C@H](F)C1
Dipeptidyl peptidase 9
  IC50: > 100 µM
Dipeptidyl peptidase 8
  IC50: > 100 µM
Dipeptidyl peptidase 2
  IC50: 3.7 µM
Dipeptidyl peptidase 4
  IC50: 0.013 µM

## C[C@H](c1nc(-c2ccc(S(C)(=O)=O)cc2Cl)no1)[C@H](N)C(=O)N1CC[C@H](F)C1
Dipeptidyl peptidase 9
  IC50: > 100 µM
Dipeptidyl peptidase 8
  IC50: > 100 µM

## C[C@H](c1nc(-c2cc(Cl)cc(Cl)c2)no1)[C@H](N)C(=O)N1CCCC1
Dipeptidyl peptidase 9
  IC50: > 100 µM
Dipeptidyl peptidase 8
  IC50: > 100 µM
Dipeptidyl peptidase 2
  IC50: 2.5 µM
Dipeptidyl peptidase 4
  IC50: 7.36 µM

## C[C@H](c1nc(-c2ccc(NS(C)(=O)=O)cc2Cl)no1)[C@H](N)C(=O)N1CC[C@@H](F)C1
Dipeptidyl peptidase 9
  IC50: > 100 µM
Dipeptidyl peptidase 8
  IC50: > 100 µM
Dipeptidyl peptidase 2
  IC50: 1.7 µM
Dipeptidyl peptidase 4
  IC50: 0.019 µM

## Cc1cc(S(C)(=O)=O)ccc1-c1noc([C@@H](CC2CC2)[C@H](N)C(=O)N2CC[C@H](F)C2)n1
Dipeptidyl peptidase 9
  IC50: > 100 µM
Dipeptidyl peptidase 8
  IC50: > 100 µM
Dipeptidyl peptidase 2
  IC50: 2.92 µM
Dipeptidyl peptidase 4
  IC50: 0.031 µM

## C[C@H](c1nc(-c2ccc(NS(C)(=O)=O)cc2)no1)[C@H](N)C(=O)N1CCCC1
Dipeptidyl peptidase 9
  IC50: > 100 µM
Dipeptidyl peptidase 8
  IC50: > 100 µM
Dipeptidyl peptidase 2
  IC50: 5.4 µM
Dipeptidyl peptidase 4
  IC50: 0.52 µM

## C[C@H](c1nc(-c2ccc(F)cc2Cl)no1)[C@H](N)C(=O)N1CCCC1
Dipeptidyl peptidase 9
  IC50: > 100 µM
Dipeptidyl peptidase 8
  IC50: > 100 µM
Dipeptidyl peptidase 2
  IC50: 3 µM
Dipeptidyl peptidase 4
  IC50: 0.83 µM

## C[C@H](c1nc(-c2ccc(S(=O)(=O)C(F)(F)F)cc2)no1)[C@H](N)C(=O)N1CCCC1
Dipeptidyl peptidase 9
  IC50: > 100 µM
Dipeptidyl peptidase 8
  IC50: > 100 µM
Dipeptidyl peptidase 2
  IC50: 24.4 µM
Dipeptidyl peptidase 4
  IC50: 0.33 µM

## C[C@H](c1nc(-c2ccccc2C(F)F)no1)[C@H](N)C(=O)N1CCCC1
Dipeptidyl peptidase 9
  IC50: > 100 µM
Dipeptidyl peptidase 8
  IC50: > 100 µM
Dipeptidyl peptidase 2
  IC50: 1 µM
Dipeptidyl peptidase 4
  IC50: 1.82 µM

## C[C@H](c1nc(-c2ccc(F)cc2F)no1)[C@H](N)C(=O)N1CCCC1
Dipeptidyl peptidase 9
  IC50: > 100 µM
Dipeptidyl peptidase 8
  IC50: > 100 µM
Dipeptidyl peptidase 2
  IC50: 8.1 µM
Dipeptidyl peptidase 4
  IC50: 4.59 µM

## C[C@H](c1nc(-c2ccccc2F)no1)[C@H](N)C(=O)N1CCCC1
Dipeptidyl peptidase 9
  IC50: > 100 µM
Dipeptidyl peptidase 8
  IC50: > 100 µM
Dipeptidyl peptidase 2
  IC50: 4.5 µM
Dipeptidyl peptidase 4
  IC50: 4.79 µM

## C[C@H](c1nc(-c2ccc(Cl)cc2Cl)co1)[C@H](N)C(=O)N1CCCC1
Dipeptidyl peptidase 9
  IC50: > 100 µM
Dipeptidyl peptidase 8
  IC50: > 100 µM
Dipeptidyl peptidase 2
  IC50: 1.05 µM
Dipeptidyl peptidase 4
  IC50: 1.83 µM

Reference: ChEMBL document CHEMBL1137276, “Discovery of potent, selective, and orally bioavailable oxadiazole-based dipeptidyl peptidase IV inhibitors” (Bioorg Med Chem Lett, 2006)
